Experimental data as given in the NIST ThermoML archive (doi:10.1016/j.jct.2011.08.016).
± gives the expanded uncertainty stated by the source.

Test: xn = mol fraction of the nth substance listed
Details: Liquid, Vibrating tube method

CCCCCCCCCC [decane] + CCCCCCC
Details	mass density [kg/m3]
353.08 K, 19000 kPa, x2 = 0.777	668.89 ± 0.55
353.08 K, 20000 kPa, x2 = 0.5219	683.14 ± 0.54
353.08 K, 20000 kPa, x2 = 0.777	669.88 ± 0.56
353.08 K, 21000 kPa, x2 = 0.5219	684.06 ± 0.55
353.08 K, 21000 kPa, x2 = 0.777	670.85 ± 0.57
353.08 K, 22000 kPa, x2 = 0.5219	684.96 ± 0.56
353.08 K, 22000 kPa, x2 = 0.777	671.79 ± 0.58
353.08 K, 23000 kPa, x2 = 0.5219	685.84 ± 0.57
353.08 K, 23000 kPa, x2 = 0.777	672.72 ± 0.58
353.08 K, 24000 kPa, x2 = 0.5219	686.7 ± 0.57
353.08 K, 24000 kPa, x2 = 0.777	673.63 ± 0.59
353.08 K, 25000 kPa, x2 = 0.5219	687.54 ± 0.58
353.08 K, 25000 kPa, x2 = 0.777	674.52 ± 0.6
353.09 K, 1000 kPa, x2 = 0.2594	674.78 ± 0.42
353.09 K, 2000 kPa, x2 = 0.2594	675.91 ± 0.42
353.09 K, 3000 kPa, x2 = 0.2594	677.03 ± 0.43
353.09 K, 4000 kPa, x2 = 0.2594	678.12 ± 0.43
353.09 K, 5000 kPa, x2 = 0.2594	679.23 ± 0.44
353.09 K, 6000 kPa, x2 = 0.2594	680.3 ± 0.44
353.09 K, 7000 kPa, x2 = 0.2594	681.37 ± 0.45
353.09 K, 8000 kPa, x2 = 0.2594	682.43 ± 0.45
353.09 K, 9000 kPa, x2 = 0.2594	683.51 ± 0.46
353.09 K, 10000 kPa, x2 = 0.2594	684.56 ± 0.47
353.09 K, 11000 kPa, x2 = 0.2594	685.6 ± 0.47
353.09 K, 12000 kPa, x2 = 0.2594	686.61 ± 0.48
353.09 K, 13000 kPa, x2 = 0.2594	687.61 ± 0.48
353.09 K, 14000 kPa, x2 = 0.2594	688.6 ± 0.49
353.09 K, 15000 kPa, x2 = 0.2594	689.58 ± 0.5
353.09 K, 16000 kPa, x2 = 0.2594	690.55 ± 0.5
353.09 K, 17000 kPa, x2 = 0.2594	691.5 ± 0.51
353.09 K, 18000 kPa, x2 = 0.2594	692.42 ± 0.52
353.09 K, 19000 kPa, x2 = 0.2594	693.33 ± 0.52
353.09 K, 20000 kPa, x2 = 0.2594	694.24 ± 0.53
353.09 K, 21000 kPa, x2 = 0.2594	695.13 ± 0.54
353.09 K, 22000 kPa, x2 = 0.2594	695.95 ± 0.54
353.09 K, 23000 kPa, x2 = 0.2594	696.8 ± 0.55
353.09 K, 24000 kPa, x2 = 0.2594	697.62 ± 0.56
353.09 K, 25000 kPa, x2 = 0.2594	698.42 ± 0.56
353.12 K, 1000 kPa, x2 = 0.952	636.17 ± 0.44
353.12 K, 2000 kPa, x2 = 0.952	637.58 ± 0.44
353.12 K, 3000 kPa, x2 = 0.952	638.96 ± 0.45
353.12 K, 4000 kPa, x2 = 0.952	640.34 ± 0.45
353.12 K, 5000 kPa, x2 = 0.952	641.71 ± 0.46
353.12 K, 6000 kPa, x2 = 0.952	643.05 ± 0.47
353.12 K, 7000 kPa, x2 = 0.952	644.36 ± 0.47
353.12 K, 8000 kPa, x2 = 0.952	645.65 ± 0.48
353.12 K, 9000 kPa, x2 = 0.952	646.91 ± 0.49
353.12 K, 10000 kPa, x2 = 0.952	648.14 ± 0.49
353.12 K, 11000 kPa, x2 = 0.952	649.36 ± 0.5
353.12 K, 12000 kPa, x2 = 0.952	650.55 ± 0.51
353.12 K, 13000 kPa, x2 = 0.952	651.72 ± 0.52
353.12 K, 14000 kPa, x2 = 0.952	652.87 ± 0.53
353.12 K, 15000 kPa, x2 = 0.952	654 ± 0.53
353.12 K, 16000 kPa, x2 = 0.952	655.12 ± 0.54
353.12 K, 17000 kPa, x2 = 0.952	656.22 ± 0.55
353.12 K, 18000 kPa, x2 = 0.952	657.29 ± 0.56
353.12 K, 19000 kPa, x2 = 0.952	658.35 ± 0.56
353.12 K, 20000 kPa, x2 = 0.952	659.4 ± 0.57
353.12 K, 21000 kPa, x2 = 0.952	660.42 ± 0.58
353.12 K, 22000 kPa, x2 = 0.952	661.43 ± 0.59
353.12 K, 23000 kPa, x2 = 0.952	662.41 ± 0.6
353.12 K, 24000 kPa, x2 = 0.952	663.35 ± 0.61
353.12 K, 25000 kPa, x2 = 0.952	664.3 ± 0.61
363.02 K, 1000 kPa, x2 = 0.5219	654.13 ± 0.43
363.02 K, 1000 kPa, x2 = 0.777	639 ± 0.43
363.02 K, 2000 kPa, x2 = 0.5219	655.44 ± 0.43
363.02 K, 2000 kPa, x2 = 0.777	640.47 ± 0.44
363.02 K, 3000 kPa, x2 = 0.5219	656.74 ± 0.44
363.02 K, 3000 kPa, x2 = 0.777	641.89 ± 0.44
363.02 K, 4000 kPa, x2 = 0.5219	657.94 ± 0.44
363.02 K, 4000 kPa, x2 = 0.777	643.28 ± 0.45
363.02 K, 5000 kPa, x2 = 0.5219	659.19 ± 0.45
363.02 K, 5000 kPa, x2 = 0.777	644.65 ± 0.46
363.02 K, 6000 kPa, x2 = 0.5219	660.44 ± 0.45
363.02 K, 6000 kPa, x2 = 0.777	646 ± 0.46
363.02 K, 7000 kPa, x2 = 0.5219	661.67 ± 0.46
363.02 K, 7000 kPa, x2 = 0.777	647.32 ± 0.47
363.02 K, 8000 kPa, x2 = 0.5219	662.86 ± 0.47
363.02 K, 8000 kPa, x2 = 0.777	648.61 ± 0.48
363.02 K, 9000 kPa, x2 = 0.5219	664.05 ± 0.47
363.02 K, 9000 kPa, x2 = 0.777	649.89 ± 0.48
363.02 K, 10000 kPa, x2 = 0.5219	665.24 ± 0.48
363.02 K, 10000 kPa, x2 = 0.777	651.15 ± 0.49
363.02 K, 11000 kPa, x2 = 0.5219	666.41 ± 0.49
363.02 K, 11000 kPa, x2 = 0.777	652.39 ± 0.5
363.02 K, 12000 kPa, x2 = 0.5219	667.56 ± 0.49
363.02 K, 12000 kPa, x2 = 0.777	653.61 ± 0.5
363.02 K, 13000 kPa, x2 = 0.5219	668.7 ± 0.5
363.02 K, 13000 kPa, x2 = 0.777	654.81 ± 0.51
363.02 K, 14000 kPa, x2 = 0.5219	669.81 ± 0.51
363.02 K, 14000 kPa, x2 = 0.777	655.99 ± 0.52
363.02 K, 15000 kPa, x2 = 0.5219	670.91 ± 0.51
363.02 K, 15000 kPa, x2 = 0.777	657.15 ± 0.53
363.02 K, 16000 kPa, x2 = 0.5219	671.98 ± 0.52
